# Test: in vitro
# Settings: human, hela cells, % viability
row,Compound,"viability at 28.5 h, 10 µM [%]"
1,Cc1c(C(=O)NCCN2CCC(C)CC2)oc2c1C(O)CC(C)(C)C2 (centres unmarked) [CBK282100],87.1
2,Cc1cccc(CN(Cc2ccccc2)C(=O)CCc2ccncc2)n1 [CBK282101],99.1
3,Cc1cc(C)n(C(C)CC(=O)NCC(C)N2CCC(C)CC2)n1 (centres unmarked) [CBK282104],108
4,COCc1ccc(C(=O)N2CCCC(c3cc4ncccc4[nH]3)C2)o1 (centres unmarked) [CBK282106],87
5,CC(Cc1cccs1)C(=O)N1CCn2cnnc2C1 (centres unmarked) [CBK282109],96
6,Cc1c(CN2CCC(CO)C2)cnn1Cc1ccccc1 (centres unmarked) [CBK282113],99.5
7,OCCCn1cc(CN2CCC(CO)C2)c2ccccc21 (centres unmarked) [CBK282114],98.6
8,CC(Cc1ccccn1)NC(=O)Cc1ccc2c(c1)CCCO2 (centres unmarked) [CBK282115],95
9,CC(CC(=O)N1CCC(Oc2ccccc2F)CC1)n1cccn1 (centres unmarked) [CBK282118],84.6
10,CCn1cncc1CN1CC2CCCC(O)(c3ccc(F)cc3)C2C1 (centres unmarked) [CBK282119],104
11,COCCn1cc(CN2CCC(CO)C2)c2ccccc21 (centres unmarked) [CBK282123],99.2
12,Cc1cc(CN2CCC(O)(c3cccnc3F)CC2)oc1C [CBK282124],83
13,CC1CCCN(CC(O)c2ccc3c(c2)CC(C)N3C(=O)C2CC2)C1 (centres unmarked) [CBK282125],99.2
14,CC(C)C(=O)N1CCCc2cc(C(O)CN3CCCCC3)ccc21 (centres unmarked) [CBK282127],104
15,Cc1ncc(CN(Cc2ccccn2)Cc2ccccc2Cl)n1C [CBK282128],97.6
16,Cn1cncc1CN(Cc1ccccn1)Cc1ccccc1Cl [CBK282129],105
17,CCC(=O)N1CCCc2cc(C(O)CN3CCCCC3)ccc21 (centres unmarked) [CBK282130],81.6
18,O=C(CN1CCN(C2CCCC2)C(=O)C1)N1CCCc2ccccc21 [CBK282132],81.7
19,CCn1nc(NC(=O)C2Cc3ccccc3CN2C)cc1C (centres unmarked) [CBK282133],93.8
20,CCCN1C[C@H](NC(=O)CC)[C@@H](c2ccc(OC)cc2)C1 [CBK282134],82.3
21,CCCN(CC1CCCO1)C(=O)c1cc2ccc(OC)cc2n1C (centres unmarked) [CBK282139],92.8
22,CCn1cc(CN2CCCCCC2c2cc(C)on2)c(C)n1 (centres unmarked) [CBK282140],80.7
23,CCn1ncc(CN2CCCCCC2c2cc(C)on2)c1C (centres unmarked) [CBK282141],91.7
24,CC(=O)N1CCCc2cc(C(O)CN3CCCC(C)C3)ccc21 (centres unmarked) [CBK282142],84.1

row,Compound,"viability at 28.5 h, 10 µM [%]"
1,CC(=O)N1CCCc2cc(C(O)CN3CCCC(C)(C)C3)ccc21 (centres unmarked) [CBK282143],94.3
2,O=C(C1CCCC1)N1CCCc2cc(C(O)CN3CCCC3)ccc21 (centres unmarked) [CBK282145],94.2
3,CCN(CC)CC1CCCN(C(=O)Cn2ccc3ccc(F)cc32)C1 (centres unmarked) [CBK282146],87.8
4,Cc1nc2c(C)cccc2cc1C(=O)NCCCc1ccccn1 [CBK282148],82.8
5,CC(=O)N1CCCc2cc(C(O)CN(C)Cc3ccccc3)ccc21 (centres unmarked) [CBK282149],88.5
6,CC(Cc1ccccn1)N(C)C(=O)c1cccc(N2CCCC2=O)c1 (centres unmarked) [CBK282153],104
7,Cn1nc(C2CCCN(C(=O)c3cccc(F)c3)C2)c2cccnc21 (centres unmarked) [CBK282155],85.8
8,CC1CC1C(=O)N1CCCC(c2cc3cccnc3[nH]2)C1 (centres unmarked) [CBK282156],80.3
9,Cc1ccc2c(CC(=O)N(C)CCN(C)C)c(C)[nH]c2c1C [CBK282157],102
10,Cc1oc2ccc(O)cc2c1C(=O)N(C)CCN1CCCCC1 [CBK282158],83
11,CCn1cc(CN2CCCCCC2c2cc(C)no2)c(C)n1 (centres unmarked) [CBK282159],95.6
12,Cc1oc2ccc(O)cc2c1C(=O)NCCCN1CC(C)CC(C)C1 (centres unmarked) [CBK282161],110
13,Cc1cccc(C2(O)CCN(C(=O)c3cc(C(C)C)nn3C)CC2)c1 [CBK282163],87.5
14,CC1CC1C(=O)N1CCCC(c2nn(C)c3ncccc23)C1 (centres unmarked) [CBK282167],85.7
15,Cc1oc2c(c1CC(=O)N(C)CCN(C)C)C(=O)CC(C)(C)C2 [CBK282171],105
16,CN(C)CCN(C)C(=O)Cc1csc(-c2ccccc2F)n1 [CBK282173],112
17,Cc1cc(C)c2c(CC(=O)N(C)CCN(C)C)coc2c1 [CBK282174],106
18,CN(C)CCN(C)C(=O)Cc1csc(-c2cccc(Cl)c2)n1 [CBK282176],111
19,O=C(CN1CCCC1=O)NC(Cc1cccs1)c1nccs1 (centres unmarked) [CBK282177],104
20,CN(CCN1CCCCC1)C(=O)C1(c2ccc(F)cc2)CC1 [CBK282178],95.4
21,COCCC(=O)NC(Cc1cccs1)c1nccs1 (centres unmarked) [CBK282180],83.3
22,CN(C)CCN(C(=O)Cc1ccc2c(c1)CCC2)C1CCN(C)CC1 [CBK282182],84.6
23,Cc1nccn1CC1(O)CCN(C(=O)Cc2cccc(F)c2)CC1 [CBK282184],109
24,COCC(=O)N1CCC(c2cc3nc(C(F)(F)F)ccc3[nH]2)CC1 [CBK282185],110

row,Compound,"viability at 28.5 h, 10 µM [%]"
1,Cc1nn(C)c(C)c1CN(C)C(=O)C(C)Cn1cc(Cl)cn1 (centres unmarked) [CBK282187],92.8
2,COCc1ccc(C(=O)NCC2CCCOC2)o1 (centres unmarked) [CBK282188],83.3
3,CC(C)CN1CC(C(=O)NCc2ccccc2-n2ccnc2)CC1=O (centres unmarked) [CBK282189],104
4,CC(Cn1cnc2ccccc21)C(=O)N1CCCCC1CN(C)C (centres unmarked) [CBK282191],106
5,CC1Cc2cc(C(=O)N3CCCCC3CN(C)C)ccc2O1 (centres unmarked) [CBK282193],110
6,Cc1nc(C)c(C(=O)NCC2CCCOC2)s1 (centres unmarked) [CBK282194],97.2
7,Cc1cc(CNC(=O)C(C)n2cnc3ccccc32)on1 (centres unmarked) [CBK282196],90.7
8,Cc1ccn(CCC(=O)NC(C)c2cccnc2)n1 (centres unmarked) [CBK282197],97.6
9,Cc1nc(SCC(=O)NC(C)c2cccnc2)oc1C (centres unmarked) [CBK282198],93.2
10,CC(NC(=O)CCn1cncn1)c1cccs1 (centres unmarked) [CBK282199],103
11,CCc1noc(C)c1C(=O)NCC1CCCCN1CC (centres unmarked) [CBK282201],97.3
12,CC(C(=O)NCCc1ccncc1)n1cnc2ccccc21 (centres unmarked) [CBK282202],103
13,CC(NC(=O)c1cc(C(F)(F)F)n(C)n1)c1cccnc1 (centres unmarked) [CBK282203],97.6
14,CCN1CCCCC1CNC(=O)c1sc(C)nc1C (centres unmarked) [CBK282206],90.2
15,CCN1CCCCC1CNC(=O)Cn1nc(C)c(C)c1C (centres unmarked) [CBK282208],105
16,Cc1cc2ccccc2n1CC(=O)N1CCn2cnnc2C1 [CBK282209],108
17,Cc1nccn1CC(=O)N1CCCC(C)(C(=O)NC2CCCC2)C1 (centres unmarked) [CBK282210],91.8
18,COCc1nc2ccccc2n1CC(=O)N1CCC(c2ccccc2)C1 (centres unmarked) [CBK282211],97.1
19,Cc1ccc(C2CCCN2C(=O)C(C)Cn2cncn2)cc1C (centres unmarked) [CBK282213],98.9
20,Cc1c(C(=O)N(C)CC(F)(F)F)nnn1-c1ccc(F)cc1 [CBK282214],89.8
21,COc1ccc(OCC2CCN(C(=O)[C@@H]3C[C@@H]4C=C[C@H]3C4)CC2)cc1 [CBK282218],93.5
22,COc1ccccc1C(=O)N1CCC(c2nc(C)n3ccccc23)C1 (centres unmarked) [CBK282221],88.4
23,Cc1nc(C)c(CC(=O)N2CCC(Oc3cccc(F)c3)CC2)s1 [CBK282223],97.4
24,COc1ccccc1CNC(=O)CCn1ccc2ccncc21 [CBK282229],91.9

row,Compound,"viability at 28.5 h, 10 µM [%]"
1,Cc1ccnn1CCC(=O)N1CCCC1c1cc2cccnc2[nH]1 (centres unmarked) [CBK282230],111
2,Cc1nn(C)cc1C(=O)N1CCC(c2cc3c(C)cccc3cn2)CC1 [CBK282231],103
3,CC(=O)NC(c1nccs1)C1CCN(C(=O)C2CC2C)CC1 (centres unmarked) [CBK282232],101
4,Cc1nc(C2CCN(C(=O)c3cccnc3)CC2)c2sccn12 [CBK282233],106
5,CCn1nccc1C(=O)N1CCC(c2cc3c(C)cccc3cn2)CC1 [CBK282234],92.4
6,Cc1nc(C2CCCN(C(=O)c3cscn3)C2)c2sccn12 (centres unmarked) [CBK282236],88.2
7,CCCC(=O)N1CCC(c2cc3n(n2)[C@@H](C(F)(F)F)C[C@@H](C)N3)C1 (some centres unmarked) [CBK282237],99.2
8,Cc1nc(C2CCN(C(=O)CCc3ccno3)CC2)c2sccn12 [CBK282239],93.1
9,Cc1nc(C2CCN(C(=O)CCC3CCCO3)CC2)c2sccn12 (centres unmarked) [CBK282240],106
10,Cc1nc(C2CCCN(C(=O)C3CCCO3)C2)c2sccn12 (centres unmarked) [CBK282241],106
11,Cc1ccc(OC(C)C(=O)N2CCCc3c(cnn3C)C2)cc1 (centres unmarked) [CBK282242],98.2
12,CC(=O)N[C@H](C)Cn1nnc2ccccc21 [CBK282246],88
13,O=C(NCCc1ccco1)c1ncoc1-c1ccc(F)cc1 [CBK282247],104
14,CN(CCCNC(=O)c1ncoc1-c1cccs1)c1ccccc1 [CBK282248],103
15,Cc1noc(C)c1C(=O)N1CCC[C@@H](C(=O)c2ccccc2F)C1 [CBK282249],90.5
16,O=C(NC1CCCc2c1cnn2Cc1ccccc1)c1ccncc1 (centres unmarked) [CBK282250],93.8
17,Cn1ncc2c1CCCN(C(=O)Cc1ccc3c(c1)CCCO3)C2 [CBK282253],87.8
18,CC(=O)N1C[C@H]2CCCN(S(=O)(=O)c3ccc4c(c3)CCC4)[C@H]2C1 [CBK282254],87.5
19,O=C(C1CC1)N1C[C@H]2CCCN(S(=O)(=O)c3cccs3)[C@H]2C1 [CBK282255],105
20,O=C(c1cccs1)N1CCOC(Cn2ccnc2)C1 (centres unmarked) [CBK282256],103
21,CCC(C)C(=O)N1CCC(c2nnc3n2CCCCC3)CC1 (centres unmarked) [CBK282260],85.4
22,Cn1nccc1CN(Cc1ccc(F)cc1)Cc1cccnc1 [CBK282261],101
23,CC(Cn1cncn1)C(=O)N1CCCCC1CCc1ccccc1 (centres unmarked) [CBK282265],109

# Reference: PMC12040169 (PLOS Biology, 2025)
